Measurements: publication PMC7457137, “An Integrated Pharmacokinetic Study of an Acanthopanax senticosus Extract Preparation by Combination of Virtual Screening, Systems Pharmacology, and Multi-Component Pharmacokinetics in Rats” (Frontiers in Pharmacology, 2020)
Like-named read-outs stand apart in the source and are kept apart here.

Tests used:
[1] = Multi-component PK in rats after i.v. administration of ASEP; assay type: in vivo, Sprague-Dawley rats; conditions: for ingredient concentration in rat plasma: PK time points 2.5, 5, 10, 15 and 20 min after single i.v. 3.52 ml/kg of 5 times concentrated ASEP, preliminary examination; for AUC0-∞ / AUC(0-t) / Cl / MRT0-∞ / Vd / t 1/2 / MRT0-t / AUC(0-inf) / clearance / MRT last / MRT inf / half-life: rat plasma, mean ± SD, n=3; for AUC(0-inf): read-out: AUC0-∞; for clearance: read-out: Cl (converted); for MRT last: read-out: MRT0-t; for MRT inf: read-out: MRT0-∞; for half-life: read-out: t 1/2 (converted)
Method: The animal experiments were conducted in line with the Guide for the Care and Use of Laboratory Animals (published by the USA National Institutes of Health, NIH Publication no. 85-23, revised 1996), which were approved by the Animal Care and Use Committee of the College of Animal Science (College of Bee Science), Fujian Agriculture and Forestry University (Approval Number: […]2019004). […] All rats were acclimated to the facilities and environment for 7 days before the experiments. […] The gradient elution was carried out by the mobile phase water with 0.1% formic acid (A) and methanol (B). […] The column temperature and flow rate were at 35 °C and 0.5 ml/min, resepectively. 5 μl sample solution was injected for the HPLC-MS analysis. The electrospray ionization (ESI) source conditions were as follows: block heating temperature was kept at 400 °C; desolvation line temperature was set at 250 °C; dry gas (nitrogen) flow rate was kept at 15 L/min; and auxiliary gas (nitrogen) flow rate was 3 L/min. […] The plasma samples were separated by centrifugation, followed by storing at -20 °C before analysis. […] A DAS 3.0 software (Chinese Pharmacologic Society, Beijing, China) was used to calculate the noncompartmental PK parameters. All the results were presented as mean ± SD, and statistics analysis was done with a single-tailed Student's t test in the work.

[2] = Stability of the compounds in rat plasma (LC-MS validation); assay type: in vitro ADME
Source text: According to the “Guidelines for non-clinical pharmacokinetics of drugs” issued by Centre for Drug Evaluation, National Medical Products Administration, China ([Guidelines for non-clinical pharmacokinetics of drugs, 2014]), the LC-MS method was validated by linearity, limits of detection (LOD), limits of quantification (LOQ), precision, accuracy, extraction recovery, matrix effect and stability of the 6 compounds in rat plasma. In brief, blank rat plasma was obtained from the other six rats. The standard mixture solution containing the 6 compounds (with the concentration of 1 mg/ml for each) was diluted with […] to prepare a series of working solution containing the 6 compounds (concentration level: 20, 50, 100, 250, 500 ng/ml and 1, 2.5, 5, 10, 25, 50, 100, 125 150, 200 μg/ml) and IS (2.5μg/ml). For calibration curve, 10 μl of the series of working solution containing the IS (2.5μg/ml) was added into 100 μl of blank plasma. Finally, 15 data points (2, 5, 10, 25, 50, 100, 250, 500 ng/ml and 1, 2.5, 5, 10, 12.5 15, 20 μg/ml) were used in the calibration curve linearity. Calibration curves were plotted by weighted linear regression of the peak area ratio of analyte to the IS against the related nominal concentration of the analyte. LOD and LOQ were defined as the detectable concentration at which the ratio of signal to noise was about 3 and 10, respectively ([Huang et al., 2019]). […] The extraction recovery and matrix effect were also assessed at the above-mentioned three concentration levels for the 6 ingredients in the spiked plasma samples ([Huang et al., 2019]). Stability was examined under the condition of setting un-treated plasma samples at ambient temperature for 6 h, and extracted plasma samples in auto-sampler for 10 h, as well as setting plasma samples for three freeze-thaw cycles and at −80°C for 15 days ([Guidelines for non-clinical pharmacokinetics of drugs, 2014]).

[3] = test system: human umbilical vein endothelial cells; design: method as in Lin et al., 2017; Hu et al., 2018; conditions: ref Lin et al., 2017, Hu et al., 2018; cited from earlier work
zebrafish model = test system: zebrafish model; design: method as in Lin et al., 2017; Hu et al., 2018; conditions: ref Lin et al., 2017, Hu et al., 2018; cited from earlier work
[4] = rat, in vivo; cited from earlier work
[5] = High group: single i.v. 3.52 ml/kg of 5 times concentrated ASEP
[6] = Low group: single i.v. 1.76 ml/kg of 5 times concentrated ASEP
[7] = extracted plasma samples, 10h in auto-sampler vials, high spiked level (HQC, 8000-16000 ng/mL)
[8] = extracted plasma samples, 10h in auto-sampler vials, low spiked level (LQC, 5-30 ng/mL)
[9] = extracted plasma samples, 10h in auto-sampler vials, middle spiked level (MQC, 400-1600 ng/mL)
[10] = rat plasma, 6h at room temperature, high spiked level (HQC, 8000-16000 ng/mL)
[11] = rat plasma, 6h at room temperature, low spiked level (LQC, 5-30 ng/mL)
[12] = rat plasma, 6h at room temperature, middle spiked level (MQC, 400-1600 ng/mL)
[13] = rat plasma, freeze-thaw stability (three cycles), high spiked level (HQC, 8000-16000 ng/mL)
[14] = rat plasma, freeze-thaw stability (three cycles), low spiked level (LQC, 5-30 ng/mL)
[15] = rat plasma, freeze-thaw stability (three cycles), middle spiked level (MQC, 400-1600 ng/mL)
[16] = rat plasma, long-term stability (-80℃,15 days), high spiked level (HQC, 8000-16000 ng/mL)
[17] = rat plasma, long-term stability (-80℃,15 days), low spiked level (LQC, 5-30 ng/mL)
[18] = rat plasma, long-term stability (-80℃,15 days), middle spiked level (MQC, 400-1600 ng/mL)
[19] = male, Sprague-Dawley, rat, plasma, iv, 1.76 ml/kg, Low group: single i.v. 1.76 ml/kg of 5 times concentrated ASEP
[20] = male, Sprague-Dawley, rat, plasma, iv, 3.52 ml/kg, High group: single i.v. 3.52 ml/kg of 5 times concentrated ASEP

SMILES | ingredient concentration in rat plasma [1] [ng/mL] | AUC0-∞ [1, 5] | AUC(0-t) [1, 5] | Cl [1, 5] [L/h] | MRT0-∞ [1, 5] [min] | AUC0-∞ [1, 6] | AUC(0-t) [1, 6] | Cl [1, 6] [L/h] | MRT0-t [1, 6] [min] | MRT0-∞ [1, 6] [min] | Stability, RE [2, 7] [%] | Stability, RE [2, 8] [%] | Stability, RE [2, 9] [%] | Stability, RE [2, 10] [%] | Stability, RE [2, 11] [%] | Stability, RE [2, 12] [%] | Stability, RE [2, 13] [%] | Stability, RE [2, 14] [%] | Stability, RE [2, 15] [%] | Stability, RE [2, 16] [%] | also measured
O=C(/C=C/c1ccc(O)c(O)c1)OC1[C@H](O)CC(O)(C(=O)O)C[C@H]1O (stereo partly drawn) [4-CQA] | > 0.5 | 3,161.48 ± 69.18 h·ng/ml | 3,156.93 ± 68.74 h·ng/ml | 0.80 ± 0.02 | 25.8 ± 0.6 | 1,750.59 ± 64.24 h·ng/ml | 1,747.89 ± 64.52 h·ng/ml | 0.73 ± 0.03 | 21.6 ± 0 | 22.2 ± 0 | -6.85 | -16.89 | 14.39 | -7.63 | -6.42 | 9.60 | -3.17 | 19.90 | -0.64 | -1.64 | Vd [1, 5]: 0.76 ± 0.02 L; t 1/2 [1, 5]: 39.6 ± 0.6 min; Vd [1, 6]: 0.98 ± 0.11 L; t 1/2 [1, 6]: 55.8 ± 4.8 min; Stability, RE [2, 17]: 17.58%; Stability, RE [2, 18]: 14.43%
O=C(/C=C/c1ccc(O)c(O)c1)O[C@@H]1C[C@@](O)(C(=O)O)C[C@@H](O)[C@@H]1O [5-CQA, 5-caffeoylquinic acid] |  | 4,013.66 ± 42.67 h·ng/ml | 4,006.71 ± 42.76 h·ng/ml | 0.86 ± 0.01 | 21 ± 0 | 2,249.80 ± 109.69 h·ng/ml | 2,244.68 ± 109.65 h·ng/ml | 0.77 ± 0.04 | 26.4 ± 1.2 | 27.6 ± 1.2 |  |  |  |  |  |  |  |  |  |  | MRT0-t [1, 5]: 19.8 ± 0 min
O=C(O)c1ccc(O)c(O)c1 [PCA, protocatechuic acid] | > 0.5 |  |  |  |  |  |  |  |  |  | -5.63 | -2.62 | -6.89 | 0.16 | -6.60 | -4.01 | -0.14 | -0.31 | 0.85 | -10.60 | effect on VEGF-induced angiogenesis [3]: significant inhibitory effects; effect on VEGF-induced angiogenesis (zebrafish model): significant inhibitory effects; AUC(0-t) ([1]; male, Sprague-Dawley, rat, plasma, iv, 1.76 ml/kg, Low group: single i.v. 1.76 ml/kg of 5 times concentrated ASEP, read-out: AUC0-t): 202 ± 4.82 ng·h/mL; AUC(0-inf) [1, 19]: 204 ± 5.08 ng·h/mL; clearance [1, 19]: 96 mL/min; MRT last [1, 19]: 15 ± 0.6 min; MRT inf [1, 19]: 16.8 ± 1.2 min; Vd ([1]; male, Sprague-Dawley, rat, plasma, iv, 1.76 ml/kg, Low group: single i.v. 1.76 ml/kg of 5 times concentrated ASEP, read-out: Vd): 2.91 ± 0.07 L; half-life [1, 19]: 21 ± 0.6 min; AUC(0-t) ([1]; male, Sprague-Dawley, rat, plasma, iv, 3.52 ml/kg, High group: single i.v. 3.52 ml/kg of 5 times concentrated ASEP, read-out: AUC0-t): 308 ± 14.2 ng·h/mL; AUC(0-inf) [1, 20]: 310 ± 14.1 ng·h/mL; clearance [1, 20]: 126 mL/min; MRT last [1, 20]: 18 ± 0.6 min; MRT inf [1, 20]: 19.2 ± 0.6 min; Vd ([1]; male, Sprague-Dawley, rat, plasma, iv, 3.52 ml/kg, High group: single i.v. 3.52 ml/kg of 5 times concentrated ASEP, read-out: Vd): 4.39 ± 0.22 L; half-life [1, 20]: 24 min; Stability, RE [2, 17]: -9.72%; Stability, RE [2, 18]: -3.16%
COc1cc2ccc(=O)oc2c(OC)c1O [isofraxidin] |  |  |  |  |  |  |  |  |  |  |  |  |  |  |  |  |  |  |  |  | elimination in cerebral ischemia-reperfusion rats compared with the normal group [4]: changed
